The NIST ThermoML archive (doi:10.1021/je050169y)
± gives the expanded uncertainty stated by the source.

Test: xn = mol fraction of the nth substance listed
Conditions: 101 kPa, Liquid

ClC(Cl)Cl [trichloromethane] + CCCO
Conditions	mass density, 303.15 K [kg/m3]	mass density, 313.15 K [kg/m3]	speed of sound, 303.15 K [m/s]	speed of sound, 313.15 K [m/s]	viscosity, 303.15 K [mPa·s]	viscosity, 313.15 K [mPa·s]
x1 = 0.0521	834.23 ± 0.85	825.28 ± 0.89	1171 ± 3	1136 ± 3	1.628 ± 0.039	1.302 ± 0.032
x1 = 0.0996	868.17 ± 0.9	858.68 ± 0.94	1153 ± 3	1117 ± 3	1.541 ± 0.037	1.243 ± 0.031
x1 = 0.1504	904.1 ± 0.96	894.03 ± 1	1134 ± 3	1098 ± 3	1.435 ± 0.035	1.163 ± 0.029
x1 = 0.201	939.51 ± 1	928.92 ± 1.1	1116 ± 3	1080 ± 3	1.331 ± 0.032	1.077 ± 0.027
x1 = 0.2498	973.47 ± 1.1	962.29 ± 1.1	1100 ± 3	1064 ± 3	1.233 ± 0.03	1.013 ± 0.026
x1 = 0.3057	1011.95 ± 1.1	1000.09 ± 1.2	1083 ± 3	1047 ± 3	1.113 ± 0.028	0.919 ± 0.023
x1 = 0.3499	1042.15 ± 1.2	1029.85 ± 1.2	1070 ± 3	1034 ± 3	1.044 ± 0.026	0.872 ± 0.022
x1 = 0.4031	1078.28 ± 1.2	1065.26 ± 1.3	1056 ± 3	1018 ± 3	0.956 ± 0.024	0.811 ± 0.021
x1 = 0.451	1110.46 ± 1.3	1097 ± 1.3	1042 ± 3	1006 ± 3	0.884 ± 0.023	0.752 ± 0.02
x1 = 0.5056	1147.02 ± 1.4	1132.88 ± 1.4	1028 ± 3	992 ± 3	0.813 ± 0.021	0.703 ± 0.019
x1 = 0.5541	1179.18 ± 1.4	1164.5 ± 1.4	1017 ± 3	981 ± 3	0.76 ± 0.02	0.662 ± 0.018
x1 = 0.5994	1209.1 ± 1.5	1193.91 ± 1.5	1007 ± 3	972 ± 3	0.723 ± 0.019	0.635 ± 0.017
x1 = 0.6511	1243.11 ± 1.5	1227.27 ± 1.5	997 ± 3	961 ± 3	0.68 ± 0.018	0.605 ± 0.016
x1 = 0.7033	1277.26 ± 1.6	1260.87 ± 1.6	988 ± 3	951 ± 3	0.654 ± 0.018	0.592 ± 0.016
x1 = 0.7506	1308.1 ± 1.6	1291.08 ± 1.6	980 ± 3	944 ± 3	0.629 ± 0.017	0.57 ± 0.016
x1 = 0.8	1340.17 ± 1.7	1322.66 ± 1.7	974 ± 3	939 ± 3	0.608 ± 0.017	0.558 ± 0.015
x1 = 0.8507	1373.01 ± 1.7	1354.88 ± 1.8	970 ± 3	933 ± 3	0.596 ± 0.016	0.547 ± 0.015
x1 = 0.9001	1404.92 ± 1.8	1386.24 ± 1.8	967 ± 3	931 ± 3	0.579 ± 0.016	0.531 ± 0.015
x1 = 0.9484	1436.03 ± 1.8	1416.96 ± 1.9	966 ± 3	931 ± 3	0.562 ± 0.016	0.517 ± 0.015
x1 = 1	1469.21 ± 1.9	1449.74 ± 1.9	969 ± 3	934 ± 3	0.534 ± 0.015	0.491 ± 0.014
